Read-outs that look alike come from different tables or passages of the source.
Experiments:
[1] = target: T1, S-nitrosoglutathione reductase (GSNOR) (Homo sapiens, UniProt P11766); experiment: GSNOR assay (inhibition of GSNOR activity, NADH absorbance at 340 nm); type: biochemical
T1 construct: made in house; host or cells: E. coli
Summary of the method: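 Recombinant GSNOR purified from E. coli, tag removed. Final conditions: 100 mM NaPO4 pH 7.4, 0.240 mM GSNO, 0.300 mM NADH, 0.5 μg/mL enzyme, 1% DMSO; NADH loss followed as 340 nm absorbance change over 3 min at 25 °C. Compounds 100–0.003 μM, triplicate; IC50 by curve analysis.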

[2] = Mouse pharmacokinetic (PK) study; type: in vivo; settings: male, BALB/c, plasma, po, 10 mg/kg, male BALB/c mice, 2 mg/kg IV, 10 mg/kg PO, read-out: oral bioavailability (% F)
From the text: The mouse was used to determine the pharmacokinetics of compounds of the invention. This species is widely used to assess the bioavailability of compounds by administering both oral (PO) and intravenous (IV) test articles. Efficacy of the compounds of the invention was compared by assessing plasma exposure in male BALB/c mice either via IV or PO administration at the times of peak activity.
Compounds of the invention were reconstituted in a phosphate buffered saline (PBS)/10% Solutol (HS 15) clear solution resulting in a concentration of 0.2 mg/mL and administered to mice (2 mg/kg) as a single IV dose. Animals were dosed via the lateral tail vein. Blood samples were collected at designated time points (0.083, 0.25, 0.5, 1, 2, 4, 8, 16, 24 hours) by cardiac puncture under isoflurane anesthesia (up to 1 mL blood per animal). The blood was collected into tubes containing Li-Heparin. The blood samples were kept on ice until centrifugation within approximately 30 minutes of collection. The plasma was transferred into labeled polypropylene tubes and frozen at −70° C. until analyzed by LC/MS/MS.
The compounds of the invention were reconstituted in 40% Propylene Glycol/40% Propylene Carbonate/20% of a 5% Sucrose clear solution resulting in a concentration of 2 mg/mL and administered to mice (10 mg/kg) as a single oral dose via gavage. Blood samples were collected at 0.25, 0.5, 1, 2, 4, 8, 12, 16, 20 and 24 hours post dose by cardiac puncture under isoflurane anesthesia. The blood was collected in tubes containing Li-Heparin. The blood samples were kept on ice until centrifugation within approximately 30 minutes of collection. The plasma was transferred into labeled polypropylene tubes and frozen at −70° C. until analyzed by LC/MS/MS.
Plasma samples at each timepoint were analyzed using a LC-MS/MS with a lower limit of quantification (LLOQ) of 1 ng/mL. Plasma was analyzed to determine the amount of the compound of the invention in each sample and regression curves generated for each compounds of the invention in the relevant matrixes.
WinNonlin analysis was used for calculating PK parameters for both the IV and PO administrations:
PK parameters for IV portion—AUClast; AUCINF; T1/2; Cl; Vss; Cmax; MRT
PK parameters for PO portion—AUClast; AUCINF; T1/2; Cmax; Cl, MRT.
In addition to the above PK parameters, bioavailability (% F) was calculated.

[3] = tested on: dextran sodium sulfate (DSS)-induced IBD; experiment: Acute prophylactic model of DSS-induced IBD; type: in vivo, mouse; settings: oral 10 mg/kg/day for 10 days, prophylactic
From the text: (§1) Acute and chronic models of dextran sodium sulfate (DSS)-induced IBD in mice were used to explore efficacy of GSNORi against this disease. Acute and chronic DSS-induced IBD are widely used and well characterized models that induce pathological changes in the colon similar to those observed in the human disease. In these models and in human disease, epithelial cells within the crypts of the colon are disrupted, leading to dysfunction of the epithelial barrier and the ensuing tissue inflammation, edema, and ulceration. GSNORi therapy may benefit IBD by restoring s-nitrosoglutathione (GSNO) levels, and thus prevent or reverse the epithelial barrier dysfunction. Experimental IBD was induced by administration of DSS in the drinking water of male C57Bl/6 mice (N=8 to 10 mice per group) for 6 consecutive days. GSNORi was dosed orally at doses of 0.1 to 10 mg/kg/day for 10 days starting two days prior to and continuing two days post DSS exposure. […] Levels of circulating cytokines involved in inflammatory pathways were also assessed. The effect of GSNORi was compared to vehicle treated controls. […] Naïve mice (N=5) were also assessed as a normal tissue control.

[4] = tested on: cigarette smoke-induced COPD; experiment: Subchronic (11 day) cigarette smoke exposure COPD model; type: in vivo, mouse; settings: for effects compared with roflumilast / inhibition of smoke-induced increase in lymphocytes in BAL / inhibition of smoke-induced increase in macrophages in BAL / inhibition of smoke-induced increase in neutrophils in BAL / inhibition of smoke-induced increase in total cells in BAL: subchronic 11 day model; for effects compared with roflumilast: roflumilast 5 mg/kg/day; for inhibition of smoke-induced increase in lymphocytes in BAL / inhibition of smoke-induced increase in macrophages in BAL / inhibition of smoke-induced increase in neutrophils in BAL / inhibition of smoke-induced increase in total cells in BAL: oral 1 mg/kg/day for 11 days
Experimental: Infiltration of inflammatory cells into the bronchoalveolar lavage fluid (BALF) and BALF levels of chemokines involved in inflammation and tissue turnover/repair were measured to assess the influences of GSNOR inhibitors on some of the early events associated with the initiation and progression of COPD. […] In animal models, changes in lung pathology are only evident after extended (several months) duration of exposure to cigarette smoke, thus making chronic models prohibitive as effective screening tools. […] The key roles of inflammation in the initiation and progression of COPD, make these short duration models relevant for initial tests of efficacy of novel therapeutics. Female C57Bl/6 mice (N=10 per group) were exposed to cigarette smoke generated from Marlboro 100 cigarettes without filters. Exposure times were 25 min. on study day 1, 35 min. on study day 2, and 45 min. on study days 3 to 11. GSNOR inhibitors were administered one hour prior to smoke exposure on each day. GSNOR inhibitors were dosed orally at 1 to 10 mg/kg/day for 11 days. […] The effect of GSNOR inhibitors were compared to vehicle treated controls and expressed as percent inhibition of the cigarette smoke induced increases in BALF cell numbers. Roflumilast was used as the positive control for the study and was dosed at 5 mg/kg/day. A group of naïve mice (N=10) was exposed to air and dosed with vehicle as a negative control for the study.

[5] = tested on: dextran sodium sulfate (DSS)-induced IBD; experiment: Chronic treatment model of DSS-induced IBD; type: in vivo, mouse; settings: oral 10 mg/kg/day for up to 14 days, treatment regimen
From the text: as §1, with “mice (N=10” for “mice (N=8”, “to 12” for “to 10”, “of” for “of 0.1 to”, “for 14” for “for 10”, “starting one day after cessation of” for “starting two days prior to and continuing two days post”

[6] = tested on: ovalbumin (OVA)-induced asthma; experiment: Mouse model of ovalbumin (OVA)-induced asthma (Penh, eosinophil infiltrate in BALF); type: in vivo; settings: three oral doses of 10 mg/kg at 48 h, 24 h, and 1 h prior to assessment
Experimental: A mouse model of ovalbumin (OVA)-induced asthma was used to screen GSNOR inhibitors for efficacy against methacholine (MCh)-induced bronchoconstriction/airway hyper-responsiveness. This is a widely used and well characterized model that presents with an acute, allergic asthma phenotype with similarities to human asthma. Efficacy of GSNOR inhibitors was assessed using a protocol in which GSNOR inhibitors were administered after OVA sensitization and airway challenge, and prior to challenge with MCh. Bronchoconstriction in response to challenge with increasing doses of MCh was assessed using whole body plethysmography (Penh; Buxco). The amount of eosinophil infiltrate into the bronchoaveolar lavage fluid (BALF) was also determined as a measure of lung inflammation. The effects of GSNOR inhibitors were compared to vehicles and to Combivent (inhaled; IH) as the positive control.
OVA (500 μg/ml) in PBS was mixed with equal volumes of 10% (w/v) aluminum potassium sulfate in distilled water and incubated for 60 min. at room temperature after adjustment to pH 6.5 using 10 N NaOH. After centrifugation at 750×g for 5 min, the OVA/alum pellet was resuspended to the original volume in distilled water. Mice received an intraperitoneal (IP) injection of 100 μg OVA (0.2 mL of 500 μg/mL in normal saline) complexed with alum on day 0. Mice were anesthetized by IP injection of a 0.2-mL mixture of ketamine and xylazine (0.44 and 6.3 mg/mL, respectively) in normal saline and were placed on a board in the supine position. Two hundred fifty micrograms (100 μl of a 2.5 mg/ml) of OVA (on day 8) and 125 μg (50 μl of 2.5 mg/ml) OVA (on days 15, 18, and 21) were placed on the back of the tongue of each animal.
In vivo airway responsiveness to methacholine was measured 24 h after the last OVA challenge in conscious, freely moving, spontaneously breathing mice with whole body plethysmography using a Buxco chamber (Wilmington, N.C.). Mice were challenged with aerosolized saline or increasing doses of methacholine (5, 20, and 50 mg/mL) generated by an ultrasonic nebulizer for 2 min. The degree of bronchoconstriction was expressed as enhanced pause (Penh), a calculated dimensionless value, which correlates with the measurement of airway resistance, impedance, and intrapleural pressure in the same mouse. Penh readings were taken and averaged for 4 min. after each nebulization challenge. Penh is calculated as follows: Penh=[(Te/Tr−1)×(PEF/PIF)], where Te is expiration time, Tr is relaxation time, PEF is peak expiratory flow, and PIF is peak inspiratory flow×0.67 coefficient. The time for the box pressure to change from a maximum to a user-defined percentage of the maximum represents the relaxation time. The Tr measurement begins at the maximum box pressure and ends at 40%.
After measurement of airway hyper-reactivity, the mice were exsanguinated by cardiac puncture, and then BALF was collected from either both lungs or from the right lung after tying off the left lung at the mainstem bronchus. Total BALF cells were counted from a 0.05 mL aliquot, and the remaining fluid was centrifuged at 200×g for 10 min at 4° C. Cell pellets were resuspended in saline containing 10% BSA with smears made on glass slides. Eosinophils were stained for 5 min. with 0.05% aqueous eosin and 5% acetone in distilled water, rinsed with distilled water, and counterstained with 0.07% methylene blue. Alternatively, eosinophils and other leukocytes were stained with DiffQuik.
GSNOR inhibitors were reconstituted in phosphate buffered saline (PBS), pH 7.4, or 0.5% w/v carboxy methylcellulose at concentrations ranging from 0.00005 to 3 mg/mL. GSNOR inhibitors were administered to mice (10 mL/kg) as a single dose or multiple dose either intravenously (IV) or orally via gavage. Dosing was performed from 30 min. to 72 h prior to MCh challenge. Effects of GSNOR inhibitors were compared to vehicle dosed in the same manner.
Combivent was used as the positive control in all studies. […]

[7] = GSNOR inhibitor activity, Tables 1-6, read-out: IC50 range
[8] = Table 8, GSNOR inhibition, IC50 range class a/b/c, read-out: IC50

T1 sequence (P11766 whole entry): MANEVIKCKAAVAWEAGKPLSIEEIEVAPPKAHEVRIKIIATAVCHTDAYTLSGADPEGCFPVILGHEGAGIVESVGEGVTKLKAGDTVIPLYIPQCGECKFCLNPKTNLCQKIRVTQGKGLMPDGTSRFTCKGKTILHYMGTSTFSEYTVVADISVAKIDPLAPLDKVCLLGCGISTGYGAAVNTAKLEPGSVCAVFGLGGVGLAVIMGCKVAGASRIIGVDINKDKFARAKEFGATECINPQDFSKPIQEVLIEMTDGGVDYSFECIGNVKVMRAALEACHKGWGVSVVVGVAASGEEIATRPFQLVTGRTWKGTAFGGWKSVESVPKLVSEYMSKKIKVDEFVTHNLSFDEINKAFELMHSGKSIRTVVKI

IC50 [1, 7] [nM]	bioavailability [2] [%]	IC50 [1, 8] [nM]	Compound	effects compared with roflumilast [4]	other results
< 100	> 9		Oc1ccc2nc(-c3ccc(-c4nnn[nH]4)cc3)ccc2c1 [Compound I-4]		
< 100			O=C(O)c1ccc(-c2ccc3cc(O)ccc3n2)c(F)c1 [Compound I-13]	comparable to those of roflumilast	inhibition of smoke-induced increase in lymphocytes in BAL [4]: 60%; inhibition of smoke-induced increase in macrophages in BAL [4]: 53%; inhibition of smoke-induced increase in neutrophils in BAL [4]: 67%; inhibition of smoke-induced increase in total cells in BAL [4]: 56%; decrease of percent of mice with severe colon injury scores via endoscopy [5]: 52 % of vehicle control; decrease of percent of mice with severe colon injury scores via histopathology [5]: 53 % of vehicle control
< 100	> 9		O=C(O)c1ccc(-c2nc3ccc(O)cc3cc2Cl)cc1 [Compound I-19]		
< 100			Cc1cc(C(=O)O)ccc1-c1ccc2cc(O)ccc2n1 [Compound I-27]	comparable to those of roflumilast	decrease of eosinophil infiltration in BAL [6]: 23 % of vehicle control; inhibition of smoke-induced increase in lymphocytes in BAL [4]: 46%; inhibition of smoke-induced increase in macrophages in BAL [4]: 41%; inhibition of smoke-induced increase in neutrophils in BAL [4]: 64%; inhibition of smoke-induced increase in total cells in BAL [4]: 44%
< 100	> 9		O=C(O)c1ccc(-c2nc3ccc(O)cc3cc2Cl)c(F)c1 [Compound I-28]		
		1000 to 10000	O=c1c2ccc(O)cc2ccn1[C@H]1CC[C@H](C(=O)O)CC1 [VIII-14, (trans)-4-(6-hydroxy-1-oxoisoquinolin-2(1H)-yl)cyclohexanecarboxylic acid]		
		< 100	O=c1c2ccc(O)cc2cc(C(F)(F)F)n1[C@H]1CC[C@H](C(=O)O)CC1 [VIII-15, (trans)-4-(6-hydroxy-1-oxo-3-(trifluoromethyl)isoquinolin-2(1H)-yl)cyclohexanecarboxylic acid]		
		1000 to 10000	O=C1c2ccc(O)cc2CCN1[C@H]1CC[C@H](C(=O)O)CC1 [VIII-16, (trans)-4-(6-hydroxy-1-oxo-3,4-dihydroisoquinolin-2(1H)-yl)cyclohexanecarboxylic acid]		
		1000 to 10000	CC1Cc2cc(O)ccc2C(=O)N1[C@H]1CC[C@H](C(=O)O)CC1 (stereo partly drawn) [VIII-17, (trans)-4-(6-hydroxy-3-methyl-1-oxo-3,4-dihydroisoquinolin-2(1H)-yl)cyclohexanecarboxylic acid]		

Compound	IC50 [1, 7] [nM]	bioavailability [2] [%]	IC50 [1, 8] [nM]	effects compared with roflumilast [4]	other results
O=C(O)c1ccc(-c2ccc3cc(O)ccc3n2)c(Cl)c1 [Compound I-8, 3-chloro-4-(6-hydroxyquinolin-2-yl)benzoic acid]	< 100			comparable to those of roflumilast	decrease of percent of mice with severe colon injury scores via endoscopy [3]: 44 % of vehicle control; decrease of percent of mice with severe colon injury scores via histopathology [3]: 26 % of vehicle control; dose response of effect ([4]; subchronic 11 day model, 1, 5, or 10 mg/kg/day): no dose response of effect
